Legend:
human V2 receptor = biological target: T1, human V2 receptor (Homo sapiens, UniProt P30518); assay: Cellular in vitro assay for determining vasopressin receptor activity (V2, CRE-luciferase); type: cell-based; details: CHO cell line transfected with human V2 receptor; [Arg8]-vasopressin at EC50 concentration; read-out: IC50 hV2
T1 construct: expressed in transfected cells; host or cells: CHO K1 (ATCC) expressing firefly luciferase under a CRE-responsive promoter
Protocol: (§1) B-1. Cellular In Vitro Assay for Determining Vasopressin Receptor Activity
(§2) The identification of agonists and antagonists of the V1a and V2 vasopressin receptors from humans, rats and dogs as well as the quantification of the activity of the compounds of the invention is carried out using recombinant cell lines. These cell lines originally derive from a hamster's ovary epithelial cell (Chinese Hamster Ovary, CHO K1, ATCC: American Type Culture Collection, Manassas, Va. 20108, USA). The test cell lines constitutively express the human, rat or dog V1a or V2 receptors. In case of the Gαq-coupled V1a receptors, cells are also stably transfected with a modified form of the calcium-sensitive photoproteins aequorin (human and rat V1a) or obelin (dog V1a), which, after reconstitution with the cofactor coelenterazine, emit light when there are increases in free calcium concentrations [Rizzuto R, Simpson A W, Brini M, Pozzan T, Nature 358, 325-327 (1992); Illarionov B A, Bondar V S, Illarionova V A, Vysotski E S, Gene 153 (2), 273-274 (1995)]. The resulting vasopressin receptor cells react to stimulation of the recombinantly expressed V1a receptors by intracellular release of calcium ions, which can be quantified by the resulting photoprotein luminescence. The Gs-coupled V2 receptors are stably transfected into cell lines expressing the gene for firefly luciferase under control of a CRE-responsible promoter. Activation of V2 receptors induces the activation of the CRE-responsive promoter via cAMP increase, thereby inducing the expression of firefly luciferase. The light emitted by photoproteins of V1a cell lines as well as the light emitted by firefly luciferase of V2 cell lines corresponds to the activation or inhibition of the respective vasopressin receptor. The bioluminescence of the cell lines is detected using a suitable luminometer [Milligan G, Marshall F, Rees S, Trends in Pharmacological Sciences 17, 235-237 (1996)].
Vasopressin V2 Receptor Cell Lines:
On the day before the assay, the cells are plated out in culture medium (DMEM/F12, 2% FCS, 2 mM glutamine, 10 mM HEPES) in 384-well microtiter plates and kept in a cell incubator (96% humidity, 5% v/v CO2, 37° C.). On the day of the assay, test compounds in various concentrations and the agonist [Arg^8]-vasopressin at EC50 concentration are added together to the wells, and plates are incubated for 3 hours in a cell incubator. Upon addition of the cell lysis reagent Triton™ and the substrate luciferin, luminescence of firefly luciferase is measured in a luminometer.
(§3) Table 1A below lists individual IC50 values for the compounds of the invention (including racemic mixtures as well as separated enantiomers) that were obtained from cell lines transfected with the human V1a or V2 receptor: […]

human V1a receptor = biological target: T2, human V1a receptor (Homo sapiens, UniProt P37288); assay: Cellular in vitro assay for determining vasopressin receptor activity (V1a, aequorin luminescence); type: cell-based; details: for IC50: CHO cell line transfected with human V1a receptor, [Arg8]-vasopressin at EC50 concentration, read-out: IC50 hV1a; for ratio IC50 hV2/hV1a: selectivity ratio IC50 hV2 / IC50 hV1a
T2 construct: expressed in transfected cells; host or cells: CHO K1 (ATCC), also stably transfected with a modified aequorin
T2 sequence (P37288 whole entry): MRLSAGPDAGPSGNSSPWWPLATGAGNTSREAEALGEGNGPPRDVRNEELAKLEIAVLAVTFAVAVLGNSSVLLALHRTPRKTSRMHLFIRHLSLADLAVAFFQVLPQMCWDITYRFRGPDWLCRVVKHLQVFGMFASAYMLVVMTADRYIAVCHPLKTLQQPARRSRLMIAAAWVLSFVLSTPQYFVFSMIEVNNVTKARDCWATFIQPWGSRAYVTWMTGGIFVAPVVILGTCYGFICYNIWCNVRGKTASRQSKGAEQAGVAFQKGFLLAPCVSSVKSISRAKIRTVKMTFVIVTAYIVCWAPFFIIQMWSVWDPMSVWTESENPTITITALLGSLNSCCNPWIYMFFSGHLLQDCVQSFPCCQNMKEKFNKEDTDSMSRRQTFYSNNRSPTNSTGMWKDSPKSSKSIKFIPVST
Protocol: as §1, §2
Vasopressin V1a Receptor Cell Lines:
On the day before the assay, the cells are plated out in culture medium (DMEM/F12, 2% FCS, 2 mM glutamine, 10 mM HEPES, 5 μg/ml coelenterazine) in 384-well microtiter plates and kept in a cell incubator (96% humidity, 5% v/v CO2, 37° C.). On the day of the assay, test compounds in various concentrations are placed for 10 minutes in the wells of the microtiter plate before the agonist [Arg^8]-vasopressin at EC50 concentration is added. The resulting light signal is measured immediately in a luminometer.
as §3

T1 sequence (P30518 whole entry): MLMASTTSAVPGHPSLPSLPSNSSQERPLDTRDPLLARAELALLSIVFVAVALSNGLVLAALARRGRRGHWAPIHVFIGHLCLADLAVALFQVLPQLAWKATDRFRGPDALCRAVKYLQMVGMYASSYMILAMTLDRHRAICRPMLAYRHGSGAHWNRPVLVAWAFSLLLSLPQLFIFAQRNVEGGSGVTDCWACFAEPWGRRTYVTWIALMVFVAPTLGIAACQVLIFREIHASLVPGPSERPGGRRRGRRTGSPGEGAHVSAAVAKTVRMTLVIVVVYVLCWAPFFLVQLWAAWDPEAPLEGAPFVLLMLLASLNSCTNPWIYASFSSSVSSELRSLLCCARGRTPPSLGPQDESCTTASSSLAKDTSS

Row | IC50 (human V2 receptor) [µM] | IC50 (human V1a receptor) [µM] | ratio IC50 hV2/hV1a (human V1a receptor) | SMILES
1 | 0.027 | 0.00135 | 20.0 | C[C@@H](O)c1nc(Cn2nc(-c3ccc(Cl)cc3)n(C[C@H](O)C(F)(F)F)c2=O)nn1-c1ncccc1Cl [Example 5, 5-(4-Chlorophenyl)-2-({1-(3-chloropyridin-2-yl)-5-[(1R)-1-hydroxyethyl]-1H-1,2,4-triazol-3-yl}methyl)-4-[(2S)-3,3,3-trifluoro-2-hydroxypropyl]-2,4-dihydro-3H-1,2,4-triazol-3-one]
2 | 0.016 | 0.003 | 5.3 | C[C@H](O)c1nc(Cn2nc(-c3ccc(Cl)cc3)n(C[C@H](O)C(F)(F)F)c2=O)nn1-c1ccncc1Cl [Example 7, 5-(4-Chlorophenyl)-2-({1-(3-chloropyridin-4-yl)-5-[(1S)-1-hydroxyethyl]-1H-1,2,4-triazol-3-yl}methyl)-4-[(2S)-3,3,3-trifluoro-2-hydroxypropyl]-2,4-dihydro-3H-1,2,4-triazol-3-one]

The next lines start with the molecule.

Row | SMILES | IC50 (human V2 receptor) [µM] | IC50 (human V1a receptor) [µM] | ratio IC50 hV2/hV1a (human V1a receptor)
3 | CC(O)c1nc(Cn2nc(-c3ccc(Cl)cc3)n(C[C@H](O)C(F)(F)F)c2=O)nn1-c1cccnc1 (single isomer, unassigned) [Example 25] | 0.24 | 0.0907 | 2.6
4 | COc1nccnc1-n1nc(Cn2nc(-c3ccc(Cl)cc3)n(C[C@H](O)C(F)(F)F)c2=O)nc1[C@H](C)O [Example 21, 5-(4-Chlorophenyl)-2-({5-[(1S)-1-hydroxyethyl]-1-(3-methoxypyrazin-2-yl)-1H-1,2,4-triazol-3-yl}methyl)-4-[(2S)-3,3,3-trifluoro-2-hydroxypropyl]-2,4-dihydro-3H-1,2,4-triazol-3-one] | 0.046 | 0.049 | 0.9
5 | C[C@H](O)c1nc(Cn2nc(-c3ccc(Cl)cc3)n(C[C@H](O)C(F)(F)F)c2=O)nn1-c1nccs1 [Example 10, 5-(4-Chlorophenyl)-2-({5-[(1S)-1-hydroxyethyl]-1-(1,3-thiazol-2-yl)-1H-1,2,4-triazol-3-yl}methyl)-4-[(2S)-3,3,3-trifluoro-2-hydroxypropyl]-2,4-dihydro-3H-1,2,4-triazol-3-one] | 0.105 | 0.00425 | 24.7
